Experiments:
[1] = Sensory evaluation of sweetness linger by a panel of experts; assay type: in vivo; conditions: for Sweetness linger rating: 3-4 min after water rinse; for Sweetness Linger rating defined for control samples: scale anchors of the protocol, sucrose, 500 ppm REBA control sample
Method: In a particular embodiment, a panel of assessors is used to measure the reduction of sweetness linger. Briefly described, a panel of assessors (generally 8 to 12 individuals) is trained to evaluate sweetness perception and measure sweetness at several time points from when the sample is initially taken into the mouth until 3 minutes after it has been expectorated. […] A decrease in score for a time point measured after the sample has cleared the mouth indicates there has been a reduction in sweetness perception.
The panel of assessors may be trained using procedures well known to those of ordinary skill in the art. In a particular embodiment, the panel of assessors may be trained using the Spectrum™ Descriptive Analysis Method (Meilgaard et al, Sensory Evaluation Techniques, 3rd edition, Chapter 11). Desirably, the focus of training should be the recognition of and the measure of the basic tastes; specifically, sweet. In order to ensure accuracy and reproducibility of results, each assessor should repeat the measure of the reduction of sweetness linger about three to about five times per sample, taking at least a five minute break between each repetition and/or sample and rinsing well with water to clear the mouth.
Generally, the method of measuring sweetness comprises taking a 10 mL sample into the mouth, holding the sample in the mouth for 5 seconds and gently swirling the sample in the mouth, rating the sweetness intensity perceived at 5 seconds, expectorating the sample (without swallowing following expectorating the sample), rinsing with one mouthful of water (e.g., vigorously moving water in mouth as if with mouth wash) and expectorating the rinse water, rating the sweetness intensity perceived immediately upon expectorating the rinse water, waiting 45 seconds and, while waling those 45 seconds, identifying the time of maximum perceived sweetness intensity and rating the sweetness intensity at that time (moving the mouth normally and swallowing as needed), rating the sweetness intensity after another 10 seconds, rating the sweetness intensity after another 60 seconds (cumulative 120 seconds after rinse), and rating the sweetness intensity after still another 60 seconds (cumulative 180 seconds after rinse). Between samples take a 5 minute break, rinsing well with water to clear the mouth.
Sensory evaluation of the samples prepared in Example Set G was carried out under the following protocol, similar to that described hereinabove. In this test protocol, none of the samples were swallowed. All samples were expectorated and the mouth was rinsed with water after the tasting. Immediately upon sensing maximal sweetness, the sample was expectorated, the mouth was rinsed with water and the rate of sweetness decay (“Sweetness Linger”) was measured, where attention was focused on the sweetness 3-4 min after the water rinse. After sample tasting was complete, a salty oyster cracker was chewed followed by a water rinse, and at least 5 minutes followed before tasting the next sample. The sweetness linger was rated by a panel of experts in the sensory evaluation of foods and beverages using the following scale: 0=no sweetness linger, 1=very slight sweetness linger, 2=slight sweetness linger, 3 moderate sweetness linger, 4=moderately high sweetness linger, 5=high sweetness linger.
The “Sweetness Linger” rating for sucrose observed by this protocol is defined as 0. The Sweetness Linger of a 500 ppm of REBA control sample is defined as 5. […]

[2] = Rate of dissolution in H2O at 25° C. of rebaudioside A polymorphs; assay type: physicochemical
[3] = assay type: physicochemical
Method: A solution of rebaudioside A (>97% pure by HPLC) was prepared in double distilled water (12.5 gm in 50 mL, 25% concentration) by stirring the mixture at 40° C. for 5 minutes. An amorphous rebaudioside A polymorph was formed by immediately using the clear solution for spray drying with the Lab-Plant spray drier SD-04 instrument (Lab-Plant Ltd., West Yorkshire, U.K.). The solution was fed through the feed pump into the nozzle atomizer which atomized it into a spray of droplets with the help of a constant flow of nitrogen/air. […] This dry powder (11-12 g, H2O 6.74%) was discharged continuously from the drying chamber and was collected in a bottle.

[4] = 500 ppm REBA (H41: 360 ppm) in carbon-treated water with phosphoric acid (75%), pH 2.4-2.5, scale 0=no to 5=high sweetness linger

Row | Rate of dissolution in H2O at 25° C. [2] | Solubility in water at room temperature [3] [%] | Molecule | Sweetness linger rating ([1]; 400 ppm REBA in citric acid/potassium citrate composition equivalent to diet lemon-lime beverage, scale 0=no, 1=very slight, 2=slight, 3=moderate, 4=moderately high, 5=high sweetness linger) | Sweetness linger rating [1, 4] | Sweetness Linger rating defined for control samples [1]
1 | – | – | rebaudioside A | 5 | 5 | 5
2 | (>35.0%/ %/5 minutes | > 35.0 | rebaudioside A [Form 4] | – | – | –
3 | – | – | OC[C@H]1O[C@@](CO)(O[C@H]2O[C@H](CO)[C@@H](O)[C@H](O)[C@H]2O)[C@@H](O)[C@@H]1O [sugar, sucrose] | – | 0 | 0
